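Values below derive from 48-hour exposures of cells grown in 96-well plates, with endpoints linearly interpolated between the two concentrations bracketing the appropriate inhibition level. GI50 = concentration required for 50% inhibition of growth.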 The source made the active and inactive calls. No stated cut-off is given here; in the data, active = GI50 up to about 1.1 µM and inactive = higher.
Experiments:
Test in all cases: growth of human tumour cells (NCI), 48 h
UO-31 = system: UO-31
NCI/ADR-RES = system: NCI/ADR-RES
NCI-H522 = system: NCI-H522
NCI-H226 = system: NCI-H226
HOP-92 = system: HOP-92
OVCAR-8 = system: OVCAR-8
U-251 = system: U-251
Malme-3M = system: Malme-3M
M14 = system: M14
IGROV-1 = system: IGROV-1
786-0 = system: 786-0
MDA-MB-435 = system: MDA-MB-435
A498 = system: A498
CCRF-CEM = system: CCRF-CEM
UACC-257 = system: UACC-257
K562 = system: K562
SNB-75 = system: SNB-75
A549 = system: A549
LOX IMVI = system: LOX IMVI
OVCAR-3 = system: OVCAR-3

Measured: GI50

Cc1ccc(S(=O)(=O)NNC(=O)Nc2ccc(Cl)cc2)cc1
inactive: UO-31 > 100 µM | NCI/ADR-RES > 100 µM | NCI-H522 > 100 µM | NCI-H226 > 100 µM | HOP-92 > 100 µM | OVCAR-8 > 100 µM | U-251 > 100 µM | Malme-3M > 100 µM | M14 > 100 µM | IGROV-1 > 100 µM | 786-0 > 100 µM | MDA-MB-435 > 100 µM | A498 > 100 µM | CCRF-CEM > 100 µM | UACC-257 > 100 µM | K562 4.26 µM | SNB-75 25.5 µM | A549 > 100 µM

C/C(=N\NC(=S)NCCNC(=S)N/N=C(\C)c1ccccn1)c1ccccn1
inactive: UO-31 1.43 µM | NCI/ADR-RES 1.92 µM | NCI-H522 6.04 µM | HOP-92 3.91 µM | OVCAR-8 1.56 µM | U-251 2.43 µM | Malme-3M 2.54 µM | M14 1.5 µM | IGROV-1 2.07 µM | 786-0 1.26 µM | MDA-MB-435 3.91 µM | A498 4.44 µM | LOX IMVI 1.89 µM | CCRF-CEM 1.28 µM | UACC-257 2.61 µM | K562 3.17 µM | SNB-75 1.73 µM | A549 3.21 µM | OVCAR-3 2.74 µM

Oc1ccc2ccccc2c1NCn1nc(CCCCCCCCc2nn(CNc3c(O)ccc4ccccc34)c(=S)o2)oc1=S
inactive: UO-31 > 100 µM | NCI/ADR-RES > 100 µM | NCI-H522 35.1 µM | NCI-H226 > 100 µM | HOP-92 > 100 µM | U-251 > 100 µM | Malme-3M > 100 µM | M14 44.8 µM | IGROV-1 6.7 µM | 786-0 > 100 µM | MDA-MB-435 38.7 µM | A498 > 100 µM | UACC-257 > 100 µM | K562 > 100 µM | SNB-75 > 100 µM | A549 > 100 µM

CC1=CC2C(O1)C1C(=O)C=CC(=O)C1=CC2[N+](=O)[O-] (stereo not drawn)
inactive: UO-31 5.22 µM | NCI/ADR-RES 25.5 µM | NCI-H522 1.71 µM | NCI-H226 > 100 µM | HOP-92 2.14 µM | OVCAR-8 22.5 µM | U-251 18.5 µM | M14 14 µM | IGROV-1 17.9 µM | 786-0 12.3 µM | MDA-MB-435 12.2 µM | A498 22.9 µM | LOX IMVI 16.6 µM | CCRF-CEM 3.85 µM | UACC-257 16.9 µM | K562 7.67 µM | SNB-75 26.7 µM | A549 19.4 µM | OVCAR-3 16 µM

COC1/C=C/C(C)C(C(C)C(OC)C(C)CCC(=O)C(C)C(CC(=O)O)OC)OC(=O)/C=C/C=C(\C)CC(OC)CC2=CC(=O)O[C@H](C2)C(C)C(OC)CC(OC)/C=C/C(C)C(OC)C1 (stereo partly drawn)
inactive: NCI/ADR-RES 2.66 µM | OVCAR-8 1.14 µM | K562 1.79 µM
active: UO-31 0.458 µM | NCI-H522 0.0259 µM | NCI-H226 0.543 µM | HOP-92 0.124 µM | U-251 0.195 µM | M14 0.222 µM | IGROV-1 0.0783 µM | 786-0 0.286 µM | MDA-MB-435 0.265 µM | A498 0.24 µM | CCRF-CEM 0.191 µM | UACC-257 0.449 µM | SNB-75 0.00746 µM | A549 0.299 µM | OVCAR-3 1.07 µM

CCOC(=O)/C(=N\Nc1ccc(-n2c(C)nc3ccccc3c2=O)cc1)C(C)=O
inactive: UO-31 29.1 µM | NCI/ADR-RES 18.1 µM | NCI-H226 18.7 µM | HOP-92 11.9 µM | OVCAR-8 19.6 µM | U-251 > 100 µM | M14 24.2 µM | IGROV-1 22.9 µM | 786-0 > 100 µM | MDA-MB-435 17.5 µM | A498 99.3 µM | LOX IMVI 32.1 µM | CCRF-CEM 40.3 µM | UACC-257 26.4 µM | K562 32.6 µM | SNB-75 17.2 µM | A549 49.9 µM | OVCAR-3 21.7 µM

CC(C)=CC(=O)c1[nH]c2ccccc2c1CC(=O)NCCc1cn(C(c2ccccc2)(c2ccccc2)c2ccccc2)cn1
inactive: UO-31 3.55 µM | NCI/ADR-RES 3.17 µM | NCI-H522 6.71 µM | NCI-H226 2.94 µM | HOP-92 2.49 µM | OVCAR-8 3.96 µM | U-251 2.82 µM | Malme-3M 5.78 µM | M14 2.02 µM | IGROV-1 3.84 µM | 786-0 3.82 µM | MDA-MB-435 2.06 µM | A498 4.22 µM | LOX IMVI 2.02 µM | CCRF-CEM 2.48 µM | UACC-257 3.67 µM | K562 2.99 µM | A549 2.87 µM | OVCAR-3 3.84 µM

COc1ccc(NC(C)=O)cc1N1C(=O)/C(=C\c2ccccc2)SC1c1cc(OC)c(OC)c(OC)c1 (stereo not drawn)
inactive: UO-31 33.7 µM | NCI/ADR-RES 17.4 µM | NCI-H522 13.8 µM | NCI-H226 24 µM | HOP-92 14.6 µM | OVCAR-8 23.1 µM | U-251 32.5 µM | Malme-3M 24.3 µM | M14 35.6 µM | IGROV-1 25.9 µM | 786-0 19.2 µM | MDA-MB-435 24.9 µM | A498 60 µM | LOX IMVI 14.9 µM | CCRF-CEM 21.2 µM | UACC-257 > 100 µM | K562 33.7 µM | A549 30.1 µM | OVCAR-3 29.4 µM

C/C=C\C(CC(=O)NCC(=O)c1c[nH]c2ccccc12)CC(=O)OC (stereo not drawn)
inactive: UO-31 > 100 µM | NCI/ADR-RES > 100 µM | NCI-H522 > 100 µM | HOP-92 > 100 µM | OVCAR-8 > 100 µM | U-251 > 100 µM | Malme-3M > 100 µM | M14 > 100 µM | IGROV-1 > 100 µM | 786-0 > 100 µM | MDA-MB-435 > 100 µM | A498 > 100 µM | CCRF-CEM 75.2 µM | UACC-257 > 100 µM | K562 > 100 µM | SNB-75 > 100 µM | A549 > 100 µM | OVCAR-3 > 100 µM

C=CC(C)(C)C(=C)C(=O)Nc1ccccc1I
inactive: UO-31 > 100 µM | NCI/ADR-RES > 100 µM | NCI-H226 > 100 µM | HOP-92 > 100 µM | OVCAR-8 > 100 µM | U-251 > 100 µM | M14 > 100 µM | 786-0 2.29 µM | MDA-MB-435 > 100 µM | A498 > 100 µM | LOX IMVI 73.6 µM | CCRF-CEM 19.3 µM | UACC-257 > 100 µM | K562 > 100 µM | SNB-75 > 100 µM | A549 > 100 µM | OVCAR-3 > 100 µM

N#Cc1c(N2CCOCC2)ncn(-c2ccc(Cl)cc2)c1=O
inactive: UO-31 > 100 µM | NCI/ADR-RES > 100 µM | NCI-H226 > 100 µM | HOP-92 > 100 µM | OVCAR-8 > 100 µM | U-251 > 100 µM | M14 > 100 µM | IGROV-1 > 100 µM | 786-0 > 100 µM | MDA-MB-435 > 100 µM | A498 > 100 µM | LOX IMVI > 100 µM | CCRF-CEM > 100 µM | UACC-257 > 100 µM | K562 > 100 µM | SNB-75 > 100 µM | A549 > 100 µM | OVCAR-3 > 100 µM

Cc1nnc(N/N=C2/C(=O)Nc3ccccc32)nc1O
inactive: UO-31 > 100 µM | NCI/ADR-RES > 100 µM | NCI-H522 > 100 µM | NCI-H226 > 100 µM | HOP-92 > 100 µM | OVCAR-8 > 100 µM | U-251 > 100 µM | Malme-3M 72.8 µM | M14 > 100 µM | IGROV-1 > 100 µM | 786-0 > 100 µM | MDA-MB-435 > 100 µM | A498 > 100 µM | LOX IMVI > 100 µM | UACC-257 > 100 µM | K562 > 100 µM | A549 > 100 µM | OVCAR-3 > 100 µM

CC(=O)c1ccc2c3c1O[C@H]1c4[nH]c5ccccc5c4C[C@@]4(O)[C@@H](C2)N(CC2CC2)CC[C@]314
active: A498 0.333 µM
inactive: UO-31 15.3 µM | NCI/ADR-RES 8.67 µM | NCI-H522 19.1 µM | NCI-H226 17.1 µM | HOP-92 14.5 µM | OVCAR-8 13.6 µM | U-251 12.2 µM | Malme-3M 21.3 µM | M14 16.9 µM | IGROV-1 13.6 µM | 786-0 15 µM | MDA-MB-435 18.6 µM | LOX IMVI 16.9 µM | CCRF-CEM 2.06 µM | UACC-257 16.8 µM | K562 16.8 µM | A549 1.15 µM | OVCAR-3 11.4 µM

CC1=NN(c2nc(N)nc(CO)n2)C(C)(C)C1
inactive: UO-31 > 100 µM | NCI/ADR-RES > 100 µM | NCI-H522 > 100 µM | NCI-H226 > 100 µM | HOP-92 > 100 µM | OVCAR-8 > 100 µM | U-251 > 100 µM | M14 > 100 µM | IGROV-1 > 100 µM | 786-0 > 100 µM | MDA-MB-435 > 100 µM | A498 > 100 µM | LOX IMVI > 100 µM | CCRF-CEM > 100 µM | UACC-257 > 100 µM | K562 > 100 µM | SNB-75 > 100 µM | A549 > 100 µM | OVCAR-3 > 100 µM

CN(C)c1ccc(/C=c2/c3ccccc3n3c2cc(NC(=O)NCCC[N+](C)(C)C)[n+]3C)cc1
active: CCRF-CEM 0.452 µM
inactive: UO-31 > 100 µM | NCI/ADR-RES > 100 µM | NCI-H522 29.4 µM | HOP-92 30.6 µM | OVCAR-8 38.9 µM | U-251 50 µM | Malme-3M > 100 µM | M14 72.8 µM | IGROV-1 16.4 µM | 786-0 > 100 µM | MDA-MB-435 > 100 µM | A498 > 100 µM | LOX IMVI 61.2 µM | UACC-257 > 100 µM | K562 40.6 µM | A549 > 100 µM | OVCAR-3 45.4 µM
